Test results taken from patent US8324390B2, “Tetrazole-substituted anthranilamides as pesticides” (Bayer CropScience AG, priority 2008, dated 2012).
Where two headings read alike, the source gives them in different places.

What was measured:
[1] = log P determination by HPLC (EEC Directive 79/831 Annex V.A8); type: physicochemical
Method: The measurements were carried out using an Agilent 1100 LC system with a 50*4.6 Zorbax Eclipse C18 1.8 μm column (oven temperature 55° C., flow rate 2.0 ml/min).
The following mobile phases were used:
Mobile phase A: acetonitrile+1000 μl of formic acid/l
Mobile phase B: Millipore water+900 μl of formic acid/l

[2] = system: caterpillars of the armyworm (Spodoptera frugiperda); test: Spodoptera frugiperda test (SPODFR spray treatment); type: in vivo; details: Spodoptera frugiperda, foliar, read-out: effect in % (caterpillars killed)
Description: (§1) Solvent: 78.0 parts by weight of acetone

[3] = system: green peach aphid (Myzus persicae); test: Myzus test (MYZUPE spray treatment); type: in vivo; details: Myzus persicae, in Brassica rapa, foliar, read-out: effect in % (aphids killed)
Description: Solvent: 78 parts by weight of acetone
as §1

Lucilia cuprina larvae = test: Lucilia cuprina test (LUCICU); type: in vivo; details: read-out: kill in % (larvae killed)
Method: (§2) Solvent: dimethyl sulphoxide
Vessels containing horse meat treated with the active compound preparation of the desired concentration are populated with Lucilia cuprina larvae.
(§3) After the desired period of time, the kill in % is determined.

Boophilus microplus = Boophilus microplus test (BOOPMI injection); type: in vivo; details: Rhipicephalus microplus, read-out: effect in % (no fertile eggs laid)
Method: as §2
The solution of active compound is injected into the abdomen (Boophilus microplus), and the animals are transferred into dishes and kept in a climatised room. The activity is assessed by […] of fertile eggs.
100% means that none of the ticks has laid any fertile eggs.

[4] = system: larvae of the mustard beetle (Phaedon cochleariae); test: Phaedon test (PHAECO spray treatment); details: Phaedon cochleariae, in Brassica rapa, foliar, read-out: effect in % (beetle larvae killed)
adult Musca domestica = test: Musca domestica test (MUSCDO); type: in vivo; details: treated sponge, read-out: kill in % (flies killed)
Method: as §2
Vessels containing a sponge treated with the active compound preparation of the desired concentration are populated with adult Musca domestica.
as §3

[5] = 20 μg/animal, injection into the abdomen
[6] = by HPLC according to EEC Directive 79/831 Annex V.A8, read-out: log P

| Structure (SMILES) | chromatographic logP ([1]; log P) | pest or weed control at 100 g/ha ([2]; in Zea mays) [%] | pest or weed control at 100 g/ha [3] [%] | pest or weed control at 100 ppm (Lucilia cuprina larvae; in Equus caballus) [%] | pest or weed control at 0.02 mg (Boophilus microplus; [5]) [%] | pest or weed control at 100 g/ha [4] [%] | chromatographic logP [1, 6] | pest or weed control at 0.02 mg (Boophilus microplus) [%] | pest or weed control at 100 ppm (adult Musca domestica) [%] | chromatographic logP ([1]; reversed-phase HPLC, Zorbax Eclipse C18 column, by HPLC according to EEC Directive 79/831 Annex V.A8, read-out: log P) | pest or weed control at 100 g/ha ([2]; application rate 100 g/ha, maize leaf discs) [%] | pest or weed control at 100 ppm (Lucilia cuprina larvae; 100 ppm, treated horse meat) [%] |
| --- | --- | --- | --- | --- | --- | --- | --- | --- | --- | --- | --- | --- |
| Cc1cc(F)cc(C(=O)NC(C)C)c1NC(=O)c1cc(Cn2nnc(C(F)F)n2)nn1-c1ncccc1Cl [Example 295] | 2.64 | ≥ 80 | ≥ 80 | ≥ 80 | ≥ 80 | ≥ 80 | – | – | – | – | – | – |
| CNC(=O)c1cc(C#N)cc(C)c1NC(=O)c1cc(Cn2nnc(C(F)(F)C(F)(F)C(F)(F)F)n2)nn1-c1ncccc1Cl [Example 5] | – | ≥ 80 | ≥ 80 | ≥ 80 | – | ≥ 80 | 3.43 | ≥ 80 | ≥ 80 | – | – | – |
| CNC(=O)c1cc(Cl)cc(C)c1NC(=O)c1cc(Cn2nnc(C(F)(F)C(F)(F)C(F)(F)F)n2)nn1-c1ncccc1Cl [Example 2] | – | ≥ 80 | ≥ 80 | ≥ 80 | – | ≥ 80 | 3.75 | ≥ 80 | ≥ 80 | – | – | – |
| Cc1cc(Br)cc(C(=O)NC2CC2)c1NC(=O)c1cc(Cn2nnc(C(F)(F)F)n2)nn1-c1ncccc1C(F)(F)F [Example 229] | – | – | – | – | ≥ 80 | ≥ 80 | – | – | – | 3.52 | ≥ 80 | ≥ 80 |
| Cc1cc(Br)cc(C(=O)NC(C)C2CC2)c1NC(=O)c1cc(Cn2nnc(C(F)(F)C(F)(F)F)n2)nn1-c1ncccc1Cl (centres unmarked) [Example 144] | 4.29 | ≥ 80 | – | – | – | ≥ 80 | – | – | ≥ 80 | – | – | – |
| Cc1cc(C#N)cc(C(=O)NC(C)(C)C)c1NC(=O)c1cc(Cn2nnc(C(F)(F)C(F)(F)F)n2)nn1-c1ncccc1Cl [Example 136] | 3.86 | ≥ 80 | ≥ 80 | – | – | ≥ 80 | – | – | ≥ 80 | – | – | – |
| Cc1cc(Cl)cc(C(=O)NCC#N)c1NC(=O)c1cc(Cn2nnc(C(F)(F)C(F)(F)F)n2)nn1-c1ncccc1Cl [Example 133] | 3.32 | ≥ 80 | – | – | – | ≥ 80 | – | – | ≥ 80 | – | – | – |
| Cc1cc(Cl)cc(C(=O)NC(C)C)c1NC(=O)c1cc(Cn2nnnc2C(F)(F)F)nn1-c1ncccc1Cl [Example 162] | 3.12 | ≥ 80 | ≥ 80 | – | – | ≥ 80 | – | – | ≥ 80 | – | – | – |
| Cc1cc(C#N)cc(C(N)=O)c1NC(=O)c1cc(Cn2nnc(C(F)(F)C(F)(F)F)n2)nn1-c1ncccc1Cl [Example 137] | 2.83 | ≥ 80 | – | – | – | ≥ 80 | – | – | ≥ 80 | – | – | – |
| CNC(=O)c1cc(Cl)cc(C)c1NC(=O)c1cc(Cn2nnc(C(F)(F)F)n2)nn1-c1ncccc1Cl [Example 11] | 3.05 | ≥ 80 | ≥ 80 | ≥ 80 | ≥ 80 | ≥ 80 | – | – | ≥ 80 | – | – | – |
| Cc1cc(Cl)cc(C(N)=O)c1NC(=O)c1cc(Cn2nnc(C(F)(F)C(F)(F)C(F)(F)F)n2)nn1-c1ncccc1Cl [Example 3] | – | ≥ 80 | – | ≥ 80 | – | ≥ 80 | 3.49 | ≥ 80 | ≥ 80 | – | – | – |
| CNC(=O)c1cc(C)cc(C)c1NC(=O)c1cc(Cn2nnnc2C(F)(F)F)nn1-c1ncccc1Cl [Example 178] | 2.48 | ≥ 80 | ≥ 80 | – | – | ≥ 80 | – | – | ≥ 80 | – | – | – |
| Cc1cc(C#N)cc(C(=O)NC(C)C)c1NC(=O)c1cc(Cn2nnc(C(F)(F)F)n2)nn1-c1ncccc1Cl [Example 10] | 3.07 | ≥ 80 | – | ≥ 80 | ≥ 80 | ≥ 80 | – | – | ≥ 80 | – | – | – |
| Cc1cc(I)cc(C(=O)NC(C)(C)C)c1NC(=O)c1cc(Cn2nnc(C(F)(F)C(F)(F)F)n2)nn1-c1ncccc1Cl [Example 218] | 4.5 | ≥ 80 | – | ≥ 80 | ≥ 80 | ≥ 80 | – | – | ≥ 80 | – | – | – |
| CC(C)(C)NC(=O)c1cc(Cl)cc(Cl)c1NC(=O)c1cc(Cn2nnc(C(F)(F)C(F)(F)F)n2)nn1-c1ncccc1Cl [Example 223] | 4.16 | ≥ 80 | ≥ 80 | ≥ 80 | ≥ 80 | ≥ 80 | – | – | ≥ 80 | – | – | – |
| Cc1cc(C#N)cc(C(=O)NC2CC2)c1NC(=O)c1cc(Cn2nnc(C(F)(F)F)n2)nn1-c1ncccc1Cl [Example 13] | 2.84 | ≥ 80 | ≥ 80 | ≥ 80 | ≥ 80 | ≥ 80 | – | – | ≥ 80 | – | – | – |
| O=C(NC1CC1)c1cc(Cl)cc(Cl)c1NC(=O)c1cc(Cn2nnc(C(F)(F)C(F)(F)F)n2)nn1-c1ncccc1Cl [Example 151] | 3.57 | ≥ 80 | – | – | – | ≥ 80 | – | – | ≥ 80 | – | – | – |
| Cc1cc(F)cc(C(=O)NC2CC2)c1NC(=O)c1cc(Cn2nnc(C(F)(F)C(F)(F)F)n2)nn1-c1ncccc1Cl [Example 220] | 3.3 | ≥ 80 | ≥ 80 | ≥ 80 | ≥ 80 | ≥ 80 | – | – | – | – | – | – |
| Cc1cc(C#N)cc(C(N)=O)c1NC(=O)c1cc(Cn2nnc(C(F)(F)C(F)(F)C(F)(F)F)n2)nn1-c1ncccc1Cl [Example 7] | – | ≥ 80 | ≥ 80 | ≥ 80 | – | ≥ 80 | 3.17 | ≥ 80 | ≥ 80 | – | – | – |
| CNC(=O)c1cc(Cl)cc(Cl)c1NC(=O)c1cc(Cn2nnc(C(F)(F)C(F)(F)F)n2)nn1-c1ncccc1Cl [Example 222] | 3.34 | ≥ 80 | ≥ 80 | ≥ 80 | ≥ 80 | ≥ 80 | – | – | – | – | – | – |
| Cc1cc(C#N)cc(C(=O)NC(C)C)c1NC(=O)c1cc(Cn2nnc(C(F)(F)C(F)(F)C(F)(F)F)n2)nn1-c1ncccc1Cl [Example 6] | – | ≥ 80 | – | ≥ 80 | – | ≥ 80 | 3.82 | ≥ 80 | – | – | – | – |
